Like-named read-outs stand apart in the source and are kept apart here. Square brackets hold non-standard residues; d marks the D form. Peptide text beside a SMILES is read from it. Nle = CCCC[C@H](N)C(=O)O; βAla = NCCC(=O)O
What was measured:
[1] = biological target: T1, GRP receptor (Rattus norvegicus, UniProt P52500); experiment: GRP Receptor Binding Assay ([125I-Tyr4] bombesin displacement, AR42J cell membranes)
T1 construct: endogenous in cells; host or cells: Rat AR42J pancreatic acinar cells (membranes)
Protocol: Rat AR42J pancreatic acinar cells were cultured in Dulbecco's modified Eagle's medium without antibiotics and supplemented with 10% (vol/vol) fetal calf serum. The incubation atmosphere consisted of 10% CO2-90% humidified air at 37°C.
(§1) Membranes for the bombesin receptor binding assay were obtained by homogenizing AR42J cells (Polytron, setting 6, 15 sec)(Brinkman, Westbury, NY) in ice-cold 50 mM Tris-HCl (Buffer A) and centrifuging twice at 39,000 x g (10 min), with an intermediate resuspension in fresh Buffer A. The final pellets were resuspended in 50 mM Tris-HCl, containing 0.1 mg/ml bacitracin, and 0.1% BSA (Buffer B), and held on ice for the receptor binding assay.

[2] = biological target: T2, rat NMB receptor (Rattus norvegicus, UniProt P24053); experiment: NMB Receptor Binding Assay (membranes of BALB-3T3 fibroblasts transfected with the rat NMB receptor); conditions: for IC50: affinity for the NMB receptor, BALB-3T3 fibroblasts transfected with the rat NMB receptor, 30 min, 4°C
T2 construct: expressed in transfected cells; host or cells: BALB-3T3 (mouse) fibroblasts
T2 sequence (P24053 1-390): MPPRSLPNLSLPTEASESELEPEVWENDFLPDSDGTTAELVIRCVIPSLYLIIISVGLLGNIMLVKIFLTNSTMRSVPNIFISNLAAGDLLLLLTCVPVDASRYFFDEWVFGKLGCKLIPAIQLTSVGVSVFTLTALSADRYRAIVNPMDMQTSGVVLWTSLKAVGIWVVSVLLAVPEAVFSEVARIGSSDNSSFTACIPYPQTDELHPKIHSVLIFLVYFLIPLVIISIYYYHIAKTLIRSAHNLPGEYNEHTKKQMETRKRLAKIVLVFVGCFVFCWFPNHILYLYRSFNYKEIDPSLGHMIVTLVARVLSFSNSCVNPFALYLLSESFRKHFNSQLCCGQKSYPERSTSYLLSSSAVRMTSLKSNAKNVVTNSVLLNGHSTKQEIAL
Protocol: The procedure for transfecting the rat NMB receptor into BALB-3T3 fibroblasts is discussed in Wada, et al., Neuron, […] (1991) and Benya, et al., Mol. Pharmacol., 42:1058 (1992).
as §1, with “[…] fibroblasts, transfected with the rat NMB receptor” for “AR42J cells”, “sec)” for “sec)(Brinkman, Westbury, NY)”
For assay, aliquots (0.4 ml) were incubated with 0.05 ml [^125 I-Tyr^4] bombesin (∼2200 Ci/mmol, New England Nuclear) and Buffer B, with and without 0.05 ml of unlabeled competing analogs. After a 30 min incubation (4°C), the bound [^125 I-Tyr^4] bombesin was separated from the free by rapid filtration through Whatman™ GF/B filters which had been previously soaked in 0.3% polyethyleneimine using a Brandel filtration manifold. The filters were then washed three times with 5 ml aliquots of ice-cold Buffer A. Specific binding was defined as the total [^125 I-Tyr^4] […] bound minus that bound in the presence of 1 µM unlabeled neuromedin-B.
Replacement of Gly at position A^6 in a prior art compound (i.e., litorin, leu-litorin, and [D-Phe^1, Leu^8,9] litorin) with β-Ala led unexpectedly to a great increase in their affinity for the NMB receptor. […] Modifications at position A^1, A^8, or A^9 further increases the affinity. […]

[3] = test system: R-3327/H prostate tumor; experiment: Assay on in vivo prostate tumor growth; design: species or system Copenhagen male rats; conditions: 200 mg/inj. s.c., B.I.D., 24 days; castrated rats with tumors escaped from castration inhibition; versus vehicle; after day 17; Fig. 1
From the text: The androgen responsive R-3327/H prostate tumor line was implanted into 38 testes-intact, syngeneic Copenhagen male rats. The tumored animals were individually staged for castration when their tumors reached a size approximating 235 mgs. Tumors were then staged for bombesin analogue treatment when two sequential tumor measurements indicated an "escape from castration inhibition" condition, as evidenced by an increase in tumor growth rate. This transition of the prostate tumor tissue from androgen sensitive to androgen insensitive occurred without surgical perturbation of the tumor, thus providing a clinically realistic model for evaluating the anti-prostate tumor activity of the bombesin analogues.
The tumored animals were separated into two groups of 19 animals. Treatment was only initiated when tumors reached the "escape from castration inhibition" condition. Group 1 received 0.2 ml/inj. of 2.6% glycerol/water vehicle, (s.c., B.I.D.). Group 2 received a […]. of Analog #5 (s.c., B.I.D.). […] Tumors were measured using Vernier calipers and the volume was calculated using the following formula: (0.5)(length)(width)^2
Fig. 1 illustrates the tumor growth inhibitory effect of the treatments in Group 1 and Group 2. Relative tumor volume was calculated by the following formula: (Tumor Volume (measuring day))/(Tumor Volume (staging day))x 100 [formula] […]

[4] = affinity for the GRP receptor, [125I-Tyr4] bombesin, rat AR42J pancreatic acinar cell membranes, 30 min, 4°C, read-out: IC50

T1 sequence (P52500 whole entry): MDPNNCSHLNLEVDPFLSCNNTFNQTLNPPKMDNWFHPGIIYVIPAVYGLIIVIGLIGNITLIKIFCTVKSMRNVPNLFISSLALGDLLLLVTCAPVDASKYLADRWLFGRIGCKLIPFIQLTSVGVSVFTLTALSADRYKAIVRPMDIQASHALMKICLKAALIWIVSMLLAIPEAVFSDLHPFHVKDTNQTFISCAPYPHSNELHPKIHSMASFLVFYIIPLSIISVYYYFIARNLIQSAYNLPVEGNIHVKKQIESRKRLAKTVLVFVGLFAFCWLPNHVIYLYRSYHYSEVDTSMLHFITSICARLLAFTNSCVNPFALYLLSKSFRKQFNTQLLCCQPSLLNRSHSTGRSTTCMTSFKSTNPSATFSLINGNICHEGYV

SMILES	IC50 [1, 4]	IC50 [2]	increase in the affinity for the NMB receptor ([2]; fold increase compared with litorin or [D-Phe1, Leu8,9] litorin)	Rate of tumor growth [3]	IC50 [1]	binding affinity on the NMB receptor ([2]; result in words)
CC(C)C[C@H](NC(=O)[C@H](CC(C)C)NC(=O)[C@H](Cc1c[nH]cn1)NC(=O)CCNC(=O)[C@@H](NC(=O)[C@H](C)NC(=O)[C@H](Cc1c[nH]c2ccccc12)NC(=O)[C@H](CCC(N)=O)NC(=O)[C@H](N)Cc1ccccc1)C(C)C)C(N)=O [Analog #2, H-D-Phe-Gln-Trp-Ala-Val-β-Ala-His-Leu-Leu-NH2] (H-[dF]QWAV[βAla]HLL-NH2)	1 nM	41 nM	11.7 time			
CCCC[C@H](NC(=O)[C@H](Cc1ccccc1)NC(=O)[C@H](Cc1cnc[nH]1)NC(=O)CCNC(=O)[C@@H](NC(=O)[C@H](C)NC(=O)[C@H](Cc1c[nH]c2ccccc12)NC(=O)[C@H](CCC(N)=O)NC(=O)[C@H](N)Cc1ccc(O)cc1)C(C)C)C(N)=O [Analog #3, H-D-Tyr-Gln-Trp-Ala-Val-β-Ala-His-Phe-Nle-NH2] (H-[dY]QWAV[βAla]HF[Nle]-NH2)		1 nM				
CC(C)C[C@H](NC(=O)[C@H](CC(C)C)NC(=O)[C@H](Cc1c[nH]cn1)NC(=O)CNC(=O)[C@@H](NC(=O)[C@H](C)NC(=O)[C@H](Cc1c[nH]c2ccccc12)NC(=O)[C@H](CCC(N)=O)NC(=O)[C@@H]1CCC(=O)N1)C(C)C)C(N)=O [Leu-Litorin, p-Glu-Gln-Trp-Ala-Val-Gly-His-Leu-Leu-NH2, reference compound]		> 10000 nM			23 nM	almost no binding affinity
CSCC[C@H](NC(=O)[C@H](Cc1ccccc1)NC(=O)[C@H](Cc1c[nH]cn1)NC(=O)CNC(=O)[C@@H](NC(=O)[C@H](C)NC(=O)[C@H](Cc1c[nH]c2ccccc12)NC(=O)[C@H](CCC(N)=O)NC(=O)[C@@H]1CCC(=O)N1)C(C)C)C(N)=O [Litorin, p-Glu-Gln-Trp-Ala-Val-Gly-His-Phe-Met-NH2, reference compound]		1.66 nM			2.4 nM	
CC(C)C[C@H](NC(=O)[C@H](CC(C)C)NC(=O)[C@H](Cc1c[nH]cn1)NC(=O)CNC(=O)[C@@H](NC(=O)[C@H](C)NC(=O)[C@H](Cc1c[nH]c2ccccc12)NC(=O)[C@H](CCC(N)=O)NC(=O)[C@H](N)Cc1ccccc1)C(C)C)C(N)=O [[D-Phe^1, Leu^8,9] litorin, H-D-Phe-Gln-Trp-Ala-Val-Gly-His-Leu-Leu-NH2, reference compound]		480 nM			2.8 nM	

More lines, main results first:

IC50 [1, 4]	SMILES	IC50 [2]	increase in the affinity for the NMB receptor ([2]; fold increase compared with litorin or [D-Phe1, Leu8,9] litorin)	Rate of tumor growth [3]	IC50 [1]	binding affinity on the NMB receptor ([2]; result in words)
0.2 nM	CCCC[C@H](NC(=O)[C@H](Cc1ccccc1)NC(=O)[C@H](Cc1c[nH]cn1)NC(=O)CCNC(=O)[C@@H](NC(=O)[C@H](C)NC(=O)[C@H](Cc1c[nH]c2ccccc12)NC(=O)[C@H](CCC(N)=O)NC(=O)[C@H](N)Cc1ccccc1)C(C)C)C(N)=O [Analog #1, H-D-Phe-Gln-Trp-Ala-Val-β-Ala-His-Phe-Nle-NH2] (H-[dF]QWAV[βAla]HF[Nle]-NH2)	1 nM				
0.1 nM	CCCC[C@H](NC(=O)[C@H](Cc1ccccc1)NC(=O)[C@H](Cc1c[nH]cn1)NC(=O)CCNC(=O)[C@@H](NC(=O)[C@H](C)NC(=O)[C@H](Cc1c[nH]c2ccccc12)NC(=O)[C@H](CCC(N)=O)NC(=O)[C@H](N)Cc1c[nH]c2ccccc12)C(C)C)C(N)=O [Analog #4, H-D-Trp-Gln-Trp-Ala-Val-β-Ala-His-Phe-Nle-NH2] (H-[dW]QWAV[βAla]HF[Nle]-NH2)	0.04 nM				
2.1 nM	CCCC[C@H](NC(=O)[C@H](CC(C)C)NC(=O)[C@H](Cc1c[nH]cn1)NC(=O)CCNC(=O)[C@@H](NC(=O)[C@H](C)NC(=O)[C@H](Cc1c[nH]c2ccccc12)NC(=O)[C@H](CCC(N)=O)NC(=O)[C@H](N)Cc1ccccc1)C(C)C)C(N)=O [Analog #5, H-D-Phe-Gln-Trp-Ala-Val-β-Ala-His-Leu-Nle-NH2] (H-[dF]QWAV[βAla]HL[Nle]-NH2)	8.9 nM		significantly (p < 0.05) inhibited		

Source: patent EP0737691A1, “Bombesin analogs” (BIOMEASURE, INC., priority 1995, dated 1996)
